Results from ChEMBL document CHEMBL1201862, “PubChem BioAssay data set” (2004).
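Growth conditions: 96-well plates. Treatment: test compound, 48 hours, 5 concentrations. Analysis: linear interpolation between bracketing concentrations; unreached endpoints set to highest concentration. Here, GI50 denotes the concentration required for 50% inhibition of growth.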 Activity calls are given as the source filed them. Cut-off read from the data, not from the text of the source: active = GI50 up to about 1.1 µM and inactive = higher.

Assays:
Assay in all cases: NCI tumour cell line growth inhibition, 48 h
SR = system: SR
NCI-H522 = system: NCI-H522
MDA-MB-231 = system: MDA-MB-231
SW-620 = system: SW-620
HOP-92 = system: HOP-92
SNB-19 = system: SNB-19
SF-295 = system: SF-295
SF-539 = system: SF-539
CAKI-1 = system: CAKI-1
SK-MEL-2 = system: SK-MEL-2
LOX IMVI = system: LOX IMVI
DU-145 = system: DU-145
MOLT-4 = system: MOLT-4
HCT-116 = system: HCT-116
HL-60 = system: HL-60
RPMI-8226 = system: RPMI-8226
MCF7 = system: MCF7
HCC 2998 = system: HCC 2998
OVCAR-3 = system: OVCAR-3
MDA-N = system: MDA-N

Measured: GI50

Nc1cc(N2CCCC2)nc(=O)n1Cc1ccccc1
inactive: SR > 100 µM | NCI-H522 > 100 µM | MDA-MB-231 > 100 µM | SW-620 > 100 µM | HOP-92 > 100 µM | SNB-19 > 100 µM | SF-295 > 100 µM | SF-539 > 100 µM | CAKI-1 > 100 µM | SK-MEL-2 > 100 µM | LOX IMVI > 100 µM | DU-145 > 100 µM | MOLT-4 > 100 µM | HCT-116 > 100 µM | HL-60 > 100 µM | RPMI-8226 > 100 µM | MCF7 > 100 µM

COC1=C[C@]2(CCC(=O)O2)[C@@H]2Cc3ccccc3[C@H](O)[C@@H]2C1=O
inactive: HCC 2998 > 100 µM | SR 19.5 µM | NCI-H522 21.7 µM | MDA-MB-231 34.6 µM | SW-620 28.4 µM | HOP-92 78.3 µM | SNB-19 > 100 µM | SF-295 > 100 µM | OVCAR-3 28.5 µM | CAKI-1 47.6 µM | MDA-N 15.8 µM | SK-MEL-2 28.6 µM | LOX IMVI 28.7 µM | MOLT-4 17.9 µM | HCT-116 30.5 µM | HL-60 25.7 µM | RPMI-8226 18.1 µM | MCF7 44 µM

O=C(Nc1cccc(C(F)(F)F)c1)C(=O)C1NC(=S)NC1=O (configuration not stated)
inactive: HCC 2998 > 100 µM | SR > 100 µM | SW-620 17.7 µM | HOP-92 > 100 µM | SNB-19 > 100 µM | SF-295 > 100 µM | SF-539 > 100 µM | OVCAR-3 > 100 µM | CAKI-1 > 100 µM | SK-MEL-2 > 100 µM | LOX IMVI 72.9 µM | MOLT-4 > 100 µM | HCT-116 82.4 µM | HL-60 > 100 µM | RPMI-8226 > 100 µM

CCOC(=O)c1nc2ccc(C(F)(F)F)cc2nc1NCc1ccc(OC)c(OC)c1
inactive: SR 29.6 µM | NCI-H522 30.6 µM | MDA-MB-231 > 100 µM | SW-620 49.7 µM | HOP-92 29.7 µM | SNB-19 94.2 µM | SF-295 47.6 µM | SF-539 > 100 µM | OVCAR-3 45.8 µM | CAKI-1 > 100 µM | MDA-N 51.3 µM | SK-MEL-2 24.2 µM | LOX IMVI 36.1 µM | MOLT-4 34.9 µM | HCT-116 39.2 µM | HL-60 22.8 µM | RPMI-8226 86.1 µM | MCF7 37.7 µM

CCOC(=O)c1c(N)sc2c1C(C(=O)OCC)CCCC2 (configuration not stated)
inactive: HCC 2998 76.9 µM | SR 34.6 µM | MDA-MB-231 46.8 µM | SW-620 > 100 µM | HOP-92 75.5 µM | SNB-19 71.6 µM | MDA-N 69.5 µM | SK-MEL-2 94.4 µM | MOLT-4 29.6 µM | HCT-116 43.1 µM | HL-60 26.2 µM | RPMI-8226 46.2 µM | MCF7 > 100 µM

N#Cc1ccc(-c2nc3cc(Cl)ccc3[nH]2)cc1
inactive: HCC 2998 38.1 µM | SR 80 µM | NCI-H522 32.4 µM | MDA-MB-231 > 100 µM | SW-620 > 100 µM | HOP-92 > 100 µM | SNB-19 > 100 µM | SF-295 44.6 µM | SF-539 > 100 µM | OVCAR-3 54.7 µM | CAKI-1 54.2 µM | MDA-N 49.1 µM | SK-MEL-2 > 100 µM | MOLT-4 23.1 µM | HL-60 13 µM | RPMI-8226 > 100 µM | MCF7 63 µM

C/C(C=O)=N\Nc1cc(C)c2ccccc2n1
inactive: HCC 2998 15.1 µM | SR 1.7 µM | NCI-H522 17.1 µM | MDA-MB-231 15.1 µM | SW-620 24.7 µM | HOP-92 15.1 µM | SNB-19 19.1 µM | SF-295 15.2 µM | SF-539 11.7 µM | OVCAR-3 2.62 µM | CAKI-1 16.9 µM | SK-MEL-2 15.2 µM | LOX IMVI 13.2 µM | DU-145 15.5 µM | MOLT-4 16.2 µM | HCT-116 14.5 µM | RPMI-8226 11.9 µM | MCF7 12.5 µM

COC1=CC(=O)N(C(=O)C2CSC(C(CO)NC(=O)c3csc(/C=N/O)n3)=N2)C1 (configuration not stated)
inactive: SR > 100 µM | MDA-MB-231 > 100 µM | SW-620 > 100 µM | SNB-19 > 100 µM | SF-295 > 100 µM | SF-539 > 100 µM | OVCAR-3 > 100 µM | CAKI-1 > 100 µM | SK-MEL-2 > 100 µM | LOX IMVI > 100 µM | DU-145 > 100 µM | MOLT-4 > 100 µM | HCT-116 > 100 µM | HL-60 > 100 µM | RPMI-8226 > 100 µM | MCF7 > 100 µM
